From ChEMBL document CHEMBL1201862, “PubChem BioAssay data set” (2004) come the findings set out here.

Test systems include K562; SK-OV-3; NCI-H23; SNB-75; OVCAR-5; RXF 393; NCI/ADR-RES; NCI-H460; SW-620; SK-MEL-5; A549; SK-MEL-28; LOX IMVI; NCI-H226; RPMI-8226; HCT-116; SF-268; ACHN; TK-10; HCC 2998.
What all share (experiment): growth of human tumour cells (NCI), 48 h

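96-well plates; 48 h exposure; 5 concentrations. Endpoints by linear interpolation between flanking doses. Not reached: highest tested concentration assigned. GI50 marks 50% less growth.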 The source made the active and inactive calls. Rule as the data show it: active = GI50 up to about 1.1 µM and inactive = higher.

In the case of `C=C1CC(OC)(C(OC)C(=O)N[C@H]2OCO[C@H]3C2O[C@H](C[C@@H](COC)OC)C(C)(C)C3OC)O[C@H](C)[C@@H]1C` (some centres undefined), the GI50 with K562 is 0.815 µM (active); in the assay on SK-OV-3 it was 1.06 µM (active); in the assay on NCI-H23 it was 1.18 µM (inactive); with SNB-75, 1.21 µM (inactive); in the assay on OVCAR-5, 1.42 µM (inactive); with RXF 393 it was 0.995 µM (active). In addition, the GI50 in the assay on NCI/ADR-RES is 2.78 µM (inactive); in the assay with NCI-H460 it was 0.746 µM (active); with SW-620, 0.859 µM (active); with SK-MEL-5, 0.622 µM (active); in the assay on A549, 0.693 µM (active); in the assay with SK-MEL-28, 0.764 µM (active). Also, the GI50 in the assay with LOX IMVI was 0.617 µM (active); in the assay on NCI-H226 it was 1.16 µM (inactive); with RPMI-8226 it was 0.111 µM (active); in the assay with HCT-116, 0.624 µM (active).
Turning to `CN(C)CCCn1c(-c2ccc(Br)cc2)cs/c1=N\c1ccccc1`, the GI50 in the assay on SF-268 is 17.1 µM (inactive); in the assay on K562, 11.6 µM (inactive); in the assay on ACHN it was 16.8 µM (inactive); in the assay on SK-OV-3, 18.3 µM (inactive); in the assay with NCI-H23, 10.7 µM (inactive); in the assay on SNB-75, 15.8 µM (inactive). Besides, the GI50 in the assay with OVCAR-5 is 16.5 µM (inactive); with RXF 393, 12.9 µM (inactive); in the assay on NCI/ADR-RES, 14.3 µM (inactive); in the assay on NCI-H460, 12.2 µM (inactive); with A549, 17.5 µM (inactive); with SK-MEL-28 it was 18.5 µM (inactive). Besides, the GI50 in the assay with TK-10 was 15.9 µM (inactive); in the assay on NCI-H226, 13.2 µM (inactive); with RPMI-8226 it was 12.6 µM (inactive); in the assay on HCC 2998, 5.38 µM (inactive).
Consider `N#Cc1c(-c2ccccc2)c(CN2CCCCC2)c(=O)n2c1[nH]c1ccccc12`, for which the GI50 is 45.1 µM (inactive) with SF-268; 24.7 µM (inactive) in the assay on K562; 33.7 µM (inactive) in the assay with ACHN; 71 µM (inactive) in the assay on SK-OV-3; 37.9 µM (inactive) in the assay on NCI-H23; 81.1 µM (inactive) in the assay on SNB-75. Also, the GI50 with OVCAR-5 was 34.9 µM (inactive); in the assay on RXF 393 it was 32.5 µM (inactive); in the assay on NCI/ADR-RES, 43.2 µM (inactive); in the assay on NCI-H460, 25.9 µM (inactive); in the assay on SW-620 it was 54.3 µM (inactive); in the assay on SK-MEL-5, 5.05 µM (inactive). Moreover, the GI50 in the assay with A549 was 26.7 µM (inactive); in the assay with SK-MEL-28, 69.5 µM (inactive); in the assay with TK-10 it was 28.4 µM (inactive); in the assay on LOX IMVI, 20.7 µM (inactive); in the assay with NCI-H226, > 100 µM (inactive); in the assay with HCT-116 it was 16.6 µM (inactive). Besides, the GI50 with HCC 2998 was 53.8 µM (inactive).
In the case of `CN(C)c1cccc2c1C(=O)C=CC21CCc2ccc(N(C)C)c3c(N(C)C)ccc1c23` (centres undefined), the GI50 in the assay with SF-268 was 14.4 µM (inactive); with K562 it was 3.96 µM (inactive); in the assay with ACHN, 13.4 µM (inactive); in the assay on SK-OV-3, 10.1 µM (inactive); with NCI-H23 it was 16.9 µM (inactive); in the assay on SNB-75, 4.8 µM (inactive). Further, the GI50 in the assay on OVCAR-5 was 19.1 µM (inactive); in the assay on RXF 393, 7.38 µM (inactive); in the assay with NCI/ADR-RES, 56.8 µM (inactive); with NCI-H460 it was 9.04 µM (inactive); with SW-620 it was 16.1 µM (inactive); in the assay on SK-MEL-5 it was 16.3 µM (inactive). Moreover, the GI50 in the assay with A549 is 18.1 µM (inactive); in the assay with SK-MEL-28 it was 15.4 µM (inactive); in the assay with TK-10, 14.6 µM (inactive); in the assay with LOX IMVI it was 15.1 µM (inactive); with NCI-H226, 17.1 µM (inactive); in the assay on RPMI-8226 it was 16.9 µM (inactive). Also, the GI50 in the assay on HCT-116 was 10.9 µM (inactive).
As for `Cc1cc2nc3c(C(O)CO)nn(-c4ccccc4)c3nc2cc1C` (centres undefined), the GI50 with SF-268 is 23.7 µM (inactive); in the assay with K562, 12.9 µM (inactive); with ACHN, 14.4 µM (inactive); in the assay on NCI-H23, 23 µM (inactive); with SNB-75, 22.4 µM (inactive); in the assay with OVCAR-5 it was 22.3 µM (inactive). For the same compound, the GI50 in the assay on RXF 393 is 14.5 µM (inactive); with NCI/ADR-RES it was 16.1 µM (inactive); with NCI-H460, 12.7 µM (inactive); in the assay on SW-620, 20.5 µM (inactive); in the assay with SK-MEL-5, 30.9 µM (inactive); in the assay on A549, 12.9 µM (inactive). Besides, the GI50 in the assay on SK-MEL-28 was 20.7 µM (inactive); in the assay with TK-10, 14 µM (inactive); with LOX IMVI, 20.5 µM (inactive); in the assay with NCI-H226, 30.6 µM (inactive); with RPMI-8226, 6.21 µM (inactive); with HCT-116, 15.3 µM (inactive).
Consider `CCOC(O)C(F)(F)F` (centres undefined), for which the GI50 with SF-268, in the assay with K562, in the assay with ACHN, with SK-OV-3, in the assay on NCI-H23 and in the assay with SNB-75 was > 100 µM (inactive) in each case. In addition, the GI50 in the assay on RXF 393, in the assay with NCI/ADR-RES, in the assay on NCI-H460, in the assay on SW-620, in the assay on SK-MEL-5 and with A549 was > 100 µM (inactive) each time. Further, the GI50 in the assay on SK-MEL-28, with TK-10, with LOX IMVI, in the assay on NCI-H226, in the assay on HCT-116 and in the assay with HCC 2998 was > 100 µM (inactive) in each case.
On to `O=C1CC2(CCC(O)(c3ccc4ccccc4c3)C(C(=O)c3ccc4ccccc4c3)C2)C(=O)c2ccccc2N1` (centres undefined), for which the GI50 in the assay on SF-268, with K562, in the assay with SK-OV-3, with NCI-H23, with SNB-75 and in the assay on OVCAR-5 was > 100 µM (inactive) throughout. For the same compound, the GI50 is > 100 µM (inactive) in the assay with RXF 393; > 100 µM (inactive) in the assay on NCI/ADR-RES; 29 µM (inactive) with NCI-H460; > 100 µM (inactive) in the assay on SW-620; 23 µM (inactive) with SK-MEL-5; > 100 µM (inactive) in the assay with A549. Also, the GI50 in the assay with SK-MEL-28, in the assay on TK-10, in the assay on LOX IMVI, in the assay with NCI-H226, in the assay with HCT-116 and in the assay with HCC 2998 was > 100 µM (inactive) throughout.
As to `c1ccc2c(c1)c1c(n2CCOCCCN2CCCCC2)CCCC1`, the GI50 with SF-268 was 28.2 µM (inactive); with K562 it was 14 µM (inactive); in the assay on ACHN, 15.1 µM (inactive); with NCI-H23, 17.6 µM (inactive); in the assay with SNB-75, 16 µM (inactive); with OVCAR-5, 13.1 µM (inactive). In addition, the GI50 in the assay with RXF 393 was 11.4 µM (inactive); in the assay with NCI/ADR-RES it was 17.9 µM (inactive); in the assay on NCI-H460, 13.9 µM (inactive); with SW-620 it was 19.5 µM (inactive); in the assay on SK-MEL-5, 20.6 µM (inactive); with A549, 18.4 µM (inactive). For the same compound, the GI50 is 20.1 µM (inactive) in the assay with SK-MEL-28; 16.4 µM (inactive) with TK-10; 16.3 µM (inactive) in the assay with NCI-H226; 31.1 µM (inactive) with RPMI-8226; 18 µM (inactive) with HCC 2998.
For `N#C[C@H](c1ccccn1)c1nc2ccccc2nc1Cl`, the GI50 in the assay on ACHN, in the assay on SK-OV-3, with NCI-H23, with SNB-75, in the assay on OVCAR-5 and in the assay on RXF 393 was > 100 µM (inactive) in each case. In addition, the GI50 in the assay with NCI/ADR-RES, in the assay with NCI-H460, in the assay with SW-620, in the assay on SK-MEL-5, in the assay with A549 and in the assay on SK-MEL-28 was > 100 µM (inactive) in each case. Also, the GI50 in the assay with NCI-H226, in the assay on RPMI-8226, in the assay on HCT-116 and in the assay with HCC 2998 was > 100 µM (inactive) throughout.
On to `O=C1c2cc3c(cc2CC12Cc1ccc4c(c1C2=O)CCC4)CCCC3` (centres undefined), for which the GI50 in the assay on SF-268 was > 100 µM (inactive); in the assay with K562, > 100 µM (inactive); in the assay on ACHN it was > 100 µM (inactive); in the assay on SK-OV-3, > 100 µM (inactive); with NCI-H23, > 100 µM (inactive); in the assay with SNB-75, 5.7 µM (inactive). Moreover, the GI50 with OVCAR-5, in the assay on RXF 393, with NCI/ADR-RES, in the assay on NCI-H460, in the assay on SW-620 and in the assay with SK-MEL-5 was > 100 µM (inactive) throughout. The GI50 with A549, with SK-MEL-28, in the assay on TK-10, with LOX IMVI, in the assay on RPMI-8226 and in the assay with HCT-116 was > 100 µM (inactive) throughout. The GI50 in the assay on HCC 2998 was > 100 µM (inactive).
In the case of `Cc1cc(S(=O)(=O)NC2=NCc3nc4ccccc4n32)c(S)cc1Cl`, the GI50 was 32 µM (inactive) in the assay with SF-268; 42.9 µM (inactive) in the assay with K562; 32.4 µM (inactive) with ACHN; 24.2 µM (inactive) in the assay with SNB-75; 20.7 µM (inactive) in the assay on OVCAR-5; 12.9 µM (inactive) with RXF 393. Moreover, the GI50 with NCI/ADR-RES was 19.6 µM (inactive); in the assay on NCI-H460, 27.7 µM (inactive); in the assay on SW-620, 47.6 µM (inactive); with SK-MEL-5, 16.9 µM (inactive); in the assay with A549 it was 25.8 µM (inactive); with SK-MEL-28, 30.5 µM (inactive). Further, the GI50 in the assay with TK-10 is 38.8 µM (inactive); in the assay on LOX IMVI, 18.4 µM (inactive); in the assay with NCI-H226, 20 µM (inactive); with RPMI-8226, 20.3 µM (inactive); in the assay with HCT-116, 18.3 µM (inactive); with HCC 2998, 17.2 µM (inactive).
